Biological target: recombinant EZH2-641F complex (EZH2 Y641F/EED/SUZ12/RbAp48/AEBP2) (Homo sapiens (Human), UniProt Q15910, Y641F)
Test: EZH2 Histone Methyl Transferase Assay (scintillation proximity assay)
Assay type: biochemical
Conditions: 350 nM histone peptide substrate, 500 nM 3H-SAM, 3 hours room temperature
Protocol: EZH2 Histone Methyl Transferase Assay
The effectiveness of compounds of the present invention as inhibitors of histone methyl transferases can be readily tested by assays known to those skilled in the art. For example, in vitro histone methyl transferase assays may be conducted with a relevant purified histone methyl transferase and an appropriate synthetic substrate to determine the inhibitory activity of the compounds. Assays for inhibition of EZH2 by the instant compounds were performed in 384-well plates with reaction mixtures containing 350 nM of histone peptide substrate (ATKAAR-K(Me2)-SAPATGGVKKPHRYRPG-GK(Biotin), 500 nM S-[methyl-^3H]adenosyl-L-methionine (55-85 Ci/mmol), 50 mM Tris-HCl (pH 9.0), 50 mM NaCl, 1 mM dithiothreitol, Tween-20 at 0.01% and fatty-acid free bovine serum albumin at 0.01%, and recombinant EZH2-641F complex (EZH2 Y641F/EED/SUZ12/RbAp48/AEBP2) at 5 nM (>98% purity, BPS Bioscience) or 15 nM (50% purity, in-house). Reaction mixtures were incubated at room temperature for 3 hours, and the reactions were terminated by 0.005% poly-L-lysine solution in 20 mM Tris-HCl (pH 7.5) and 150 mM NaCl. Reaction products were captured by binding to strepavidin-conjugated imaging beads. Incorporation of radioactive methyl group into the histone peptide substrate was determined in Leadseeker (GE Healthcare) by means of scintillation proximity assay. Dose response curves were generated to determine the concentration required to inhibit 50% of methyl transferase activity (EC50). Compounds were dissolved at 10 mM in dimethylsulfoxide (DMSO) and evaluated at eleven concentrations. EC50 values were derived by non-linear regression analysis.

Sequence of recombinant EZH2-641F complex (EZH2 Y641F/EED/SUZ12/RbAp48/AEBP2) (Q15910 whole entry Y641F): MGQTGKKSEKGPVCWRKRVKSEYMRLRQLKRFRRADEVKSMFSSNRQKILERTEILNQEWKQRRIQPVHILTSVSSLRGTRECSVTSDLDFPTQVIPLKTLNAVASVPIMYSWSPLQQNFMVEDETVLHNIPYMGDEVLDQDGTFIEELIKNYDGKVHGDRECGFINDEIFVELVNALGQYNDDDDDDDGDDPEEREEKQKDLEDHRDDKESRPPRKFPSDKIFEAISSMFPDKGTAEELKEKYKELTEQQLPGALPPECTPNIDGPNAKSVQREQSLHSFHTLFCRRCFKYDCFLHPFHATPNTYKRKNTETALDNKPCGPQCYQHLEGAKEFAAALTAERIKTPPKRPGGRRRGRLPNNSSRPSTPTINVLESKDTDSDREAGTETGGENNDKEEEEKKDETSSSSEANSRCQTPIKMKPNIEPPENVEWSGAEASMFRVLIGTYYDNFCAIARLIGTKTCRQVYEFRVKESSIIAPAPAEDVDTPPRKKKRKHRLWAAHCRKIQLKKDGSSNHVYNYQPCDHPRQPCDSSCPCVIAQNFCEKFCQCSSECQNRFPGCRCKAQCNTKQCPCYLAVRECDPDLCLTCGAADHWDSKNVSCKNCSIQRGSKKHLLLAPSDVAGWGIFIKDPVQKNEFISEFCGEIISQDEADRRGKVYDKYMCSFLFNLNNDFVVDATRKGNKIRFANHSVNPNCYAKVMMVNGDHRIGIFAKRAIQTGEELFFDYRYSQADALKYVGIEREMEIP
Sequence of recombinant EZH2-641F complex (EZH2 Y641F/EED/SUZ12/RbAp48/AEBP2) (O75530 whole entry partner): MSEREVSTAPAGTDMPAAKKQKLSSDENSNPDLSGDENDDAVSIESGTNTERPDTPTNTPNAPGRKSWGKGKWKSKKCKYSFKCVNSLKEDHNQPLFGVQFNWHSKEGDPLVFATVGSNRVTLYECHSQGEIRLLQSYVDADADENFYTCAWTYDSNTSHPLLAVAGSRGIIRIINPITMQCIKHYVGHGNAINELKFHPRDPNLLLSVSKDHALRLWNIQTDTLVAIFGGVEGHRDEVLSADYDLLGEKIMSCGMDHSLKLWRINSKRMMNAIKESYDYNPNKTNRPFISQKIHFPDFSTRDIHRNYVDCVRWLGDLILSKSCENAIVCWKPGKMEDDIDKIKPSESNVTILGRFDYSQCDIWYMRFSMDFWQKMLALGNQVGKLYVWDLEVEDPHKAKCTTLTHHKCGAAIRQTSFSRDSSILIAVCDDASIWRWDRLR
Sequence of recombinant EZH2-641F complex (EZH2 Y641F/EED/SUZ12/RbAp48/AEBP2) (Q15022 whole entry partner): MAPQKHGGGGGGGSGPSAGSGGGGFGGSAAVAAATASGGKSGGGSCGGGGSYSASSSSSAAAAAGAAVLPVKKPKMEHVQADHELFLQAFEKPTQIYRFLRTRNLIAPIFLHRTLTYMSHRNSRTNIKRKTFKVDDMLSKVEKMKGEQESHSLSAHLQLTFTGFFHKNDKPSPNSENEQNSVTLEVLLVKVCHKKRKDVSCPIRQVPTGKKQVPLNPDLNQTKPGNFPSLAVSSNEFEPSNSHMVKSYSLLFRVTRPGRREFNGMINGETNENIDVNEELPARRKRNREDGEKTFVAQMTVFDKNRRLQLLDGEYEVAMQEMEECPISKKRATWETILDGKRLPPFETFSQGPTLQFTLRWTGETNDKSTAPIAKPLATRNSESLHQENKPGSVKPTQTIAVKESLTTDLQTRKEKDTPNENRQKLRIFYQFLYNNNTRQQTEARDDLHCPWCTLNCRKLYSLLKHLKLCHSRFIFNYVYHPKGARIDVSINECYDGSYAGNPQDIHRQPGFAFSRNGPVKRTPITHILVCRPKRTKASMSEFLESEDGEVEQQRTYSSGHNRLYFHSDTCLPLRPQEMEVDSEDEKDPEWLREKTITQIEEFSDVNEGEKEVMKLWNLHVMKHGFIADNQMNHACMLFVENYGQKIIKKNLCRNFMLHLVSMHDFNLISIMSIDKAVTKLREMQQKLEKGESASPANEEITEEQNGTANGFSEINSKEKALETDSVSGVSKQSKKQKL
Sequence of recombinant EZH2-641F complex (EZH2 Y641F/EED/SUZ12/RbAp48/AEBP2) (Q09028 whole entry partner): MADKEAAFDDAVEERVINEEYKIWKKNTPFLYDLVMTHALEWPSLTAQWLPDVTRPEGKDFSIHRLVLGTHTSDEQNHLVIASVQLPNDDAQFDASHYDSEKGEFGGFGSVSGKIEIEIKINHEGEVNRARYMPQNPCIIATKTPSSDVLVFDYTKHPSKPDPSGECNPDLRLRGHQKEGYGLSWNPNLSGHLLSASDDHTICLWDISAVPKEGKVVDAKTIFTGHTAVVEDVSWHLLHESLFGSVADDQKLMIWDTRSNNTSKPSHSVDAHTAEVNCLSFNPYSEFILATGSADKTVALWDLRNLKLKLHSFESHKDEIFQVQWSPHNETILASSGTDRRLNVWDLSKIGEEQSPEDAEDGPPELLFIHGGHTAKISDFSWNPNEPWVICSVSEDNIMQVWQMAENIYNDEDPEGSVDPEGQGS
Sequence of recombinant EZH2-641F complex (EZH2 Y641F/EED/SUZ12/RbAp48/AEBP2) (Q6ZN18 whole entry partner): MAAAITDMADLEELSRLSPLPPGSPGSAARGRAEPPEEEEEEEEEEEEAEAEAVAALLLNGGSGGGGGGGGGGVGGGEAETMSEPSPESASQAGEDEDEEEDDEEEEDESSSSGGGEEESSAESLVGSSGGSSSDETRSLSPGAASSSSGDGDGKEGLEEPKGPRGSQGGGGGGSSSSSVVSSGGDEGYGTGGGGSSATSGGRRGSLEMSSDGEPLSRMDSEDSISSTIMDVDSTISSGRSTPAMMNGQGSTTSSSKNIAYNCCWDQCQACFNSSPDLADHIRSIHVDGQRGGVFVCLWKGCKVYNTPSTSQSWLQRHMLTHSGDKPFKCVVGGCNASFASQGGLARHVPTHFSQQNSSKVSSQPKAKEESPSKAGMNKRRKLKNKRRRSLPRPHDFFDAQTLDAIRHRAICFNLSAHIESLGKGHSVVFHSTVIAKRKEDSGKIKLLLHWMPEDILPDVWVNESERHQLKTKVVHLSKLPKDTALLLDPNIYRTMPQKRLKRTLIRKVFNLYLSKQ

| Structure (SMILES) | IC50 [nM] |
| --- | --- |
| Cc1cc(C)c(CNC(=O)c2cc3c(c(-c4cnc(N5CCNCC5)nc4)c2)OC(C)(C)C3)c(=O)[nH]1 [Example 20, N-((4,6-Dimethyl-2-oxo-1,2-dihydropyridin-3-yl)methyl)-2,2-dimethyl-7-(2-(piperazin-1-yl)pyrimidin-5-yl)-2,3-dihydrobenzofuran-5-carboxamide] | < 500 |
| Cc1cc(C)c(CNC(=O)c2cc(Cc3ccccc3)c3c(c2)CC(C)(C)O3)c(=O)[nH]1 [Example 21, 7-Benzyl-N-((4,6-dimethyl-2-oxo-1,2-dihydropyridin-3-yl)methyl)-2,2-dimethyl-2,3-dihydrobenzofuran-5-carboxamide] | > 1000 |
| Cc1cc(C)c(CNC(=O)c2cc(C#N)c3c(c2)CC(C)(C)O3)c(=O)[nH]1 [Example 22, 7-Cyano-N-((4,6-dimethyl-2-oxo-1,2-dihydropyridin-3-yl)methyl)-2,2-dimethyl-2,3-dihydrobenzofuran-5-carboxamide] | > 1000 |
| CCCc1cc(C)[nH]c(=O)c1CNC(=O)c1cc(Cl)c2c(c1)CC(C)(C)O2 [Example 23, 7-Chloro-2,2-dimethyl-N-((6-methyl-2-oxo-4-propyl-1,2-dihydropyridin-3-yl)methyl)-2,3-dihydrobenzofuran-5-carboxamide] | > 1000 |
| CCCc1cc(C)[nH]c(=O)c1CNC(=O)c1cc(Br)c2c(c1)CC(C)(C)O2 [Example 24, 7-Bromo-2,2-dimethyl-N-((6-methyl-2-oxo-4-propyl-1,2-dihydropyridin-3-yl)methyl)-2,3-dihydrobenzofuran-5-carboxamide] | > 1000 |
| COc1ccc(-c2cc(C(=O)NCc3c(C)cc(C)[nH]c3=O)c(C)c3c2OC(C)(C)C3)cn1 [Example 25, N-((4,6-Dimethyl-2-oxo-1,2-dihydropyridin-3-yl)methyl)-7-(6-methoxypyridin-3-yl)-2,2,4-trimethyl-2,3-dihydrobenzofuran-5-carboxamide] | 500 to 1000 |
| Cc1cc(C)c(CNC(=O)c2cc(-c3ccc(N4CCNCC4)nc3)c3c(c2C)CC(C)(C)O3)c(=O)[nH]1 [Example 26, N-((4,6-Dimethyl-2-oxo-1,2-dihydropyridin-3-yl)methyl)-2,2,4-trimethyl-7-(6-(piperazin-1-yl)pyridin-3-yl)-2,3-dihydrobenzofuran-5-carboxamide] | < 500 |
| Cc1cc(C)c(CNC(=O)c2cc(-c3ccc(N4CCOCC4)nc3)c3c(c2)C(C)CO3)c(=O)[nH]1 (centres unmarked) [Example 27, N-((4,6-Dimethyl-2-oxo-1,2-dihydropyridin-3-yl)methyl)-3-methyl-7-(6-morpholinopyridin-3-yl)-2,3-dihydrobenzofuran-5-carboxamide] | > 1000 |
| Cc1cc(C)c(CNC(=O)c2cc(-c3ccc(CN4CCOCC4)cc3)c3c(c2)C(C)CO3)c(=O)[nH]1 (centres unmarked) [Example 28, N-((4,6-Dimethyl-2-oxo-1,2-dihydropyridin-3-yl)methyl)-3-methyl-7-(4-(morpholinomethyl)phenyl)-2,3-dihydrobenzofuran-5-carboxamide] | > 1000 |
| Cc1cc(C)c(CNC(=O)c2cc(-c3ccc(N4CCNCC4)nc3)c3c(c2)C(C)CO3)c(=O)[nH]1 (centres unmarked) [Example 29, N-((4,6-Dimethyl-2-oxo-1,2-dihydropyridin-3-yl)methyl)-3-methyl-7-(6-(piperazin-1-yl)pyridin-3-yl)-2,3-dihydrobenzofuran-5-carboxamide] | > 1000 |
| COc1ccc(-c2cc(C(=O)NCc3c(C)cc(C)[nH]c3=O)cc3c2OCC3C)cn1 (centres unmarked) [Example 30, N-((4,6-Dimethyl-2-oxo-1,2-dihydropyridin-3-yl)methyl)-7-(6-methoxypyridin-3-yl)-3-methyl-2,3-dihydrobenzofuran-5-carboxamide] | > 1000 |
| Cc1cc(C)c(CNC(=O)c2cc(Br)c3c(c2)CC(C)O3)c(=O)[nH]1 (centres unmarked) [Example 31, 7-Bromo-N-((4,6-dimethyl-2-oxo-1,2-dihydropyridin-3-yl)methyl)-2-methyl-2,3-dihydrobenzofuran-5-carboxamide] | > 1000 |
| COc1ccc(-c2cc(C(=O)NCc3c(C)cc(C)[nH]c3=O)cc3c2OC(C)C3)cn1 (centres unmarked) [Example 32, N-((4,6-Dimethyl-2-oxo-1,2-dihydropyridin-3-yl)methyl)-7-(6-methoxypyridin-3-yl)-2-methyl-2,3-dihydrobenzofuran-5-carboxamide] | > 1000 |
| Cc1cc(C)c(CNC(=O)c2cc3c(c(-c4ccc(N5CCOCC5)nc4)c2)OC(C)C3)c(=O)[nH]1 (centres unmarked) [Example 33, N-((4,6-Dimethyl-2-oxo-1,2-dihydropyridin-3-yl)methyl)-2-methyl-7-(6-morpholinopyridin-3-yl)-2,3-dihydrobenzofuran-5-carboxamide] | > 1000 |
| Cc1cc(C)c(CNC(=O)c2cc3c(c(-c4ccc(N5CCNCC5)nc4)c2)OC(C)C3)c(=O)[nH]1 (centres unmarked) [Example 34, N-((4,6-Dimethyl-2-oxo-1,2-dihydropyridin-3-yl)methyl)-2-methyl-7-(6-(piperazin-1-yl)pyridin-3-yl)-2,3-dihydrobenzofuran-5-carboxamide] | > 1000 |
| Cc1cc(C)c(CNC(=O)c2cc3c(c(-c4ccc(CN5CCOCC5)cc4)c2)OC(C)C3)c(=O)[nH]1 (centres unmarked) [Example 35, N-((4,6-Dimethyl-2-oxo-1,2-dihydropyridin-3-yl)methyl)-2-methyl-7-(4-(morpholinomethyl)phenyl)-2,3-dihydrobenzofuran-5-carboxamide] | > 1000 |
| COc1ccc(-c2cc(C(=O)NCc3c(C)cc(C)[nH]c3=O)cc3c2OCC3)cn1 [Example 36, N-((4,6-Dimethyl-2-oxo-1,2-dihydropyridin-3-yl)methyl)-7-(6-methoxypyridin-3-yl)-2,3-dihydrobenzofuran-5-carboxamide] | > 1000 |
| Cc1cc(C)c(CNC(=O)c2cc3c(c(-c4ccc(N5CCOCC5)nc4)c2)OCC3)c(=O)[nH]1 [Example 37, N-((4,6-Dimethyl-2-oxo-1,2-dihydropyridin-3-yl)methyl)-7-(6-morpholinopyridin-3-yl)-2,3-dihydrobenzofuran-5-carboxamide] | > 1000 |
| Cc1cc(C)c(CNC(=O)c2cc3c(c(-c4ccc(N5CCNCC5)nc4)c2)OCC3)c(=O)[nH]1 [Example 38, N-((4,6-Dimethyl-2-oxo-1,2-dihydropyridin-3-yl)methyl)-7-(6-(piperazin-1-yl)pyridin-3-yl)-2,3-dihydrobenzofuran-5-carboxamide] | > 1000 |
| Cc1cc(C)c(CNC(=O)c2ccc3c(c2)CCC(C)(C)O3)c(=O)[nH]1 [Example 41, N-((4,6-Dimethyl-2-oxo-1,2-dihydropyridin-3-yl)methyl)-2,2-dimethylchroman-6-carboxamide] | > 1000 |
| Cc1cc(C)c(CNC(=O)c2cc(Br)c3c(c2)CCC(C)(C)O3)c(=O)[nH]1 [Example 42, 8-Bromo-N-((4,6-dimethyl-2-oxo-1,2-dihydropyridin-3-yl)methyl)-2,2-dimethylchroman-6-carboxamide] | > 1000 |
| COc1ccc(-c2cc(C(=O)NCc3c(C)cc(C)[nH]c3=O)cc3c2OC(C)(C)CC3)cn1 [Example 43, N-((4,6-Dimethyl-2-oxo-1,2-dihydropyridin-3-yl)methyl)-8-(6-methoxypyridin-3-yl)-2,2-dimethylchroman-6-carboxamide] | > 1000 |
| CC1=CCOc2c(Br)cc(C(=O)NCc3c(C)cc(C)[nH]c3=O)cc2C1 [Example 44, 9-Bromo-N-((4,6-dimethyl-2-oxo-1,2-dihydropyridin-3-yl)methyl)-4-methyl-2,5-dihydrobenzo[b]oxepine-7-carboxamide] | > 1000 |
